Tested on: Metabolism protein genes
Test: DNA chip mRNA expression in yeast, metabolism protein genes (Table 7)
Assay type: cell-based, Saccharomyces cerevisiae S288C
Protocol: Yeast (Saccharomyces cerevisiae S288C (α SUC2mal mel gap2 CUP1)) were incubated at 25° C. on YPD medium (yeast extract 1%, polypepton 2%, glucose 2%). One of toxic chemical substances was added to the cells at logarithmic growth phase, and the cells were further incubated for two hours. Cells were cultured without any chemical substance in the same condition, and were used as control. Concentrations of the chemical substances were defined to inhibit the growth of the yeast but not lead to death.
After completion of the incubation, the culture was centrifuged to collect the cells. To the cells, sodium acetate buffer (50 mM sodium acetate, 10 mM EDTA, 1% SDS) was added, and the mixture was shaken at 65° C. for five minutes, followed by returning to room temperature, and obtaining the supernatant, of which the procedures were repeated two times. To the supernatant, ½ amount of a solution of phenol/chloroform was added, and the mixture was centrifuged to give a supernatant, which was added with an equal amount of chloroform, and the mixture was centrifuged to give a supernatant. To the supernatant, an equal amount of isopropanol containing 0.3 M sodium acetate was added, and the mixture was allowed to stand at room temperature for 30 minutes, after which the mixture was centrifuged to give a sediment of the whole RNAs. Seventy % ethanol was added to the sediment, and the mixture was again centrifuged to give a sediment, which was then dried and dissolved in water. mRNA was isolated from the whole RNAs as followings. In view of the fact that a poly A chain is attached to the 3′ terminus of mRNA, a polynucleotide having a poly T structure which was immobilized on the surface of latex beads was used to trap the mRNA, and then the mRNA was washed and eluted with spine column (Oligotex-dT30<Super>mRNA Purification Kit, Takara). Reverse transcription of the mRNA was conducted with a reverse transcriptase (Super Script II Reverse Transcriptase; catalogue No. 18064-014, GibcoBRL) using fluorescence-labeled nucleotides to give cDNAs that were introduced with Cy3-dUTP or Cy5-dUTP during the reverse transcription.
The labeled cDNAs were dissolved in TE buffer (10mM Tris-HCl/1 mM EDTA, pH8.0), and the solution was dropped on the DNA chip containing the whole genes of yeast (DNA Chip Research Inc. Japan) so that the cDNAs were hybridized on the DNA chip at 65° C. for over 12 hours. The fluoresces intensity of the DNA chip was read with a scanner, and the ratio relative to the fluorescence intensity resulting from the absence of chemical substance was estimated as the following, which is shown in Tables 1 to 9: […]

CN(C)C(=S)SSC(=S)N(C)C [(10), Tetramethylthiuram disulfide]
The level of expressed mRNA in the presence of chemical substance/The level of expressed mRNA in the absence of chemical substance (yeast gene YAL012W): 3.9
The level of expressed mRNA in the presence of chemical substance/The level of expressed mRNA in the absence of chemical substance (yeast gene YAL038W): 1.1
The level of expressed mRNA in the presence of chemical substance/The level of expressed mRNA in the absence of chemical substance (yeast gene YAL044C): 0.6
The level of expressed mRNA in the presence of chemical substance/The level of expressed mRNA in the absence of chemical substance (yeast gene YAL054C): 4.1
The level of expressed mRNA in the presence of chemical substance/The level of expressed mRNA in the absence of chemical substance (yeast gene YAR071W): 0.3
The level of expressed mRNA in the presence of chemical substance/The level of expressed mRNA in the absence of chemical substance (yeast gene YBL001C): 0.9
level of expressed mRNA in the presence/in the absence of chemical substance (yeast gene YBR003W): 1.3
level of expressed mRNA in the presence/in the absence of chemical substance (yeast gene YBR011C): 1.0
The level of expressed mRNA in the presence of chemical substance/The level of expressed mRNA in the absence of chemical substance (yeast gene YBR014C): 0.8
level of expressed mRNA in the presence/in the absence of chemical substance (yeast gene YBR020W): 1.1
The level of expressed mRNA in the presence of chemical substance/The level of expressed mRNA in the absence of chemical substance (yeast gene YBR023C): 0.4
The level of expressed mRNA in the presence of chemical substance/The level of expressed mRNA in the absence of chemical substance (yeast gene YBR029C): 1.1
The level of expressed mRNA in the presence of chemical substance/The level of expressed mRNA in the absence of chemical substance (yeast gene YBR035C): 1.5
The level of expressed mRNA in the presence of chemical substance/The level of expressed mRNA in the absence of chemical substance (yeast gene YBR068C): 2.5
The level of expressed mRNA in the presence of chemical substance/The level of expressed mRNA in the absence of chemical substance (yeast gene YBR111C): 1.9
The level of expressed mRNA in the presence of chemical substance/The level of expressed mRNA in the absence of chemical substance (yeast gene YBR183W): 2.0
The level of expressed mRNA in the presence of chemical substance/The level of expressed mRNA in the absence of chemical substance (yeast gene YBR222C): 1.0
The level of expressed mRNA in the presence of chemical substance/The level of expressed mRNA in the absence of chemical substance (yeast gene YBR256C): 6.8
The level of expressed mRNA in the presence of chemical substance/The level of expressed mRNA in the absence of chemical substance (yeast gene YBR296C): 1.8
The level of expressed mRNA in the presence of chemical substance/The level of expressed mRNA in the absence of chemical substance (yeast gene YCL009C): 1.6
The level of expressed mRNA in the presence of chemical substance/The level of expressed mRNA in the absence of chemical substance (yeast gene YCL064C): 5.2
level of expressed mRNA in the presence/in the absence of chemical substance (yeast gene YCR010C): 4.7
level of expressed mRNA in the presence/in the absence of chemical substance (yeast gene YCR034W): 0.2
The level of expressed mRNA in the presence of chemical substance/The level of expressed mRNA in the absence of chemical substance (yeast gene YCR048W): 0.5
The level of expressed mRNA in the presence of chemical substance/The level of expressed mRNA in the absence of chemical substance (yeast gene YCR098C): 2.4
The level of expressed mRNA in the presence of chemical substance/The level of expressed mRNA in the absence of chemical substance (yeast gene YDR019C): 0.7
level of expressed mRNA in the presence/in the absence of chemical substance (yeast gene YDR050C): 1.3
level of expressed mRNA in the presence/in the absence of chemical substance (yeast gene YDR073W): 1.2
level of expressed mRNA in the presence/in the absence of chemical substance (yeast gene YDR123C): 0.6
level of expressed mRNA in the presence/in the absence of chemical substance (yeast gene YDR178W): 0.8
level of expressed mRNA in the presence/in the absence of chemical substance (yeast gene YDR277C): 0.9
level of expressed mRNA in the presence/in the absence of chemical substance (yeast gene YDR284C): 1.0
level of expressed mRNA in the presence/in the absence of chemical substance (yeast gene YDR345C): 1.1
The level of expressed mRNA in the presence of chemical substance/The level of expressed mRNA in the absence of chemical substance (yeast gene YDR380W): 0.3
level of expressed mRNA in the presence/in the absence of chemical substance (yeast gene YDR400W): 1.4
level of expressed mRNA in the presence/in the absence of chemical substance (yeast gene YDR408C): 0.5
level of expressed mRNA in the presence/in the absence of chemical substance (yeast gene YDR483W): 1.1
The level of expressed mRNA in the presence of chemical substance/The level of expressed mRNA in the absence of chemical substance (yeast gene YDR497C): 0.8
The level of expressed mRNA in the presence of chemical substance/The level of expressed mRNA in the absence of chemical substance (yeast gene YDR502C): 0.9
The level of expressed mRNA in the presence of chemical substance/The level of expressed mRNA in the absence of chemical substance (yeast gene YDR516C): 5.2
level of expressed mRNA in the presence/in the absence of chemical substance (yeast gene YEL063C): 1.7
level of expressed mRNA in the presence/in the absence of chemical substance (yeast gene YER015W): 0.9
The level of expressed mRNA in the presence of chemical substance/The level of expressed mRNA in the absence of chemical substance (yeast gene YER026C): 1.5
The level of expressed mRNA in the presence of chemical substance/The level of expressed mRNA in the absence of chemical substance (yeast gene YER053C): 3.9
The level of expressed mRNA in the presence of chemical substance/The level of expressed mRNA in the absence of chemical substance (yeast gene YER069W): 10.4
level of expressed mRNA in the presence/in the absence of chemical substance (yeast gene YER081W): 1.1
The level of expressed mRNA in the presence of chemical substance/The level of expressed mRNA in the absence of chemical substance (yeast gene YER096W): 3.5
level of expressed mRNA in the presence/in the absence of chemical substance (yeast gene YER120W): 0.9
The level of expressed mRNA in the presence of chemical substance/The level of expressed mRNA in the absence of chemical substance (yeast gene YER178W): 1.3
level of expressed mRNA in the presence/in the absence of chemical substance (yeast gene YFL011W): 1.6
